Holding throughout (experiment): MIC, microdilution broth method (NCCLS)
What all share (assay type): cell-based
Common to all, as to conditions: 35° C., 16-20 hours
Background: Broth dilution looks for growth in wells or tubes with falling amounts of substance.

One test has as its system S. aureus ATCC29213. The gist of the method:
(§1)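 MIC taken from visual growth relative to compound-free wells in each tray. Incubation: 35° C for 16-20 h, cation-adjusted Mueller-Hinton broth, two-fold dilution series, ~5×10^4 CFU/well.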

For the next test, the system named is E. coli OC2605. The gist of the method:
as §1

In a further test the test system is H. influenzae ATCC49247. The gist of the method: as §1
A further test relates to E. faecalis ATCC29212. The gist of the method: as §1
A further test relates to S. pneumoniae ATCC49619. The gist of the method: as §1

In brackets after ≈: the same amount, converted by molar mass.

As for `CCC1OC(=O)C(C)C(=O)C(C)C(OC2OC(C)CC(N(C)C)C2O)C(C)(OC(=O)NN)CC(C)C(=O)C(C)C2NC(=O)OC12C` (centres unmarked) [Compound 5], the “MIC (B: S. aureus ATCC29213)” value with S. aureus ATCC29213 is 16 µg/mL (≈ 24.4 µM). Besides, the “MIC (A: E. coli OC2605)” value against E. coli OC2605 was over 16 µg/mL. Moreover, the “MIC (E: H. influenzae ATCC49247)” value with H. influenzae ATCC49247 came to 8 µg/mL (≈ 12.2 µM). Besides, the “MIC (C: E. faecalis ATCC29212)” value with E. faecalis ATCC29212 was found to be 4 µg/mL (≈ 6.09 µM). In addition, in the test on S. pneumoniae ATCC49619, the “MIC (D: S. pneumoniae ATCC49619)” value came out at 0.5 µg/mL (≈ 0.761 µM).
For `CCC1OC(=O)C(C)C(=O)C(C)C(OC2OC(C)CC(N(C)C)C2O)C(C)(OC(=O)OCC=Cc2ccccc2)CC(C)C(=O)C(C)C2NC(=O)OC12C` (centres unmarked) [Compound 6], in that order: 0.12 µg/mL (≈ 0.158 µM), 16 µg/mL (≈ 21.1 µM), 1 µg/mL (≈ 1.32 µM), 0.12 µg/mL (≈ 0.158 µM) and 0.03 µg/mL (≈ 0.0395 µM).
Turning to `CCC1OC(=O)C(C)C(=O)C(C)C(OC2OC(C)CC(N(C)C)C2O)C(C)(OC(=O)OCC=Cc2ccc(-c3ncccn3)cc2)CC(C)C(=O)C(C)C2NC(=O)OC12C` (centres unmarked) [Compound 7], in the test on S. aureus ATCC29213, the “MIC (B: S. aureus ATCC29213)” value came out at 0.12 µg/mL (≈ 0.143 µM). Also, in the test with E. coli OC2605, the “MIC (A: E. coli OC2605)” value is 8 µg/mL (≈ 9.56 µM). Besides, the “MIC (E: H. influenzae ATCC49247)” value in the test with H. influenzae ATCC49247 is 2 µg/mL (≈ 2.39 µM). Further, the “MIC (C: E. faecalis ATCC29212)” value in the test on E. faecalis ATCC29212 was 0.06 µg/mL (≈ 0.0717 µM). Further, the “MIC (D: S. pneumoniae ATCC49619)” value against S. pneumoniae ATCC49619 worked out at 0.03 µg/mL (≈ 0.0358 µM).
Regarding `CCC1OC(=O)C(C)C(=O)C(C)C(OC2OC(C)CC(N(C)C)C2O)C(C)(OC(=O)OCC=Cc2ccc(-c3cccnn3)cc2)CC(C)C(=O)C(C)C2NC(=O)OC12C` (centres unmarked) [Compound 20], the “MIC (B: S. aureus ATCC29213)” value against S. aureus ATCC29213 worked out at 0.12 µg/mL (≈ 0.143 µM). Besides, the “MIC (A: E. coli OC2605)” value with E. coli OC2605 turned out to be 8 µg/mL (≈ 9.56 µM). Besides, the “MIC (E: H. influenzae ATCC49247)” value against H. influenzae ATCC49247 was determined as 2 µg/mL (≈ 2.39 µM). For the same compound, the “MIC (C: E. faecalis ATCC29212)” value against E. faecalis ATCC29212 stood at 0.06 µg/mL (≈ 0.0717 µM). The “MIC (D: S. pneumoniae ATCC49619)” value in the test on S. pneumoniae ATCC49619 was 0.03 µg/mL (≈ 0.0358 µM).
With `CCC1OC(=O)C(C)C(=O)C(C)C(OC2OC(C)CC(N(C)C)C2O)C(C)(OC(=O)OCc2ccc(-c3ncccn3)cc2)CC(C)C(=O)C(C)C2NC(=O)OC12C` (centres unmarked) [Compound 77], the “MIC (B: S. aureus ATCC29213)” value in the test with S. aureus ATCC29213 amounted to 0.12 µg/mL (≈ 0.148 µM). In the test with E. coli OC2605, the “MIC (A: E. coli OC2605)” value came out at 8 µg/mL (≈ 9.87 µM). In the test on H. influenzae ATCC49247, the “MIC (E: H. influenzae ATCC49247)” value came out at 2 µg/mL (≈ 2.47 µM). For the same compound, in the test on E. faecalis ATCC29212, the “MIC (C: E. faecalis ATCC29212)” value was found to be 0.06 µg/mL (≈ 0.074 µM). Further, the “MIC (D: S. pneumoniae ATCC49619)” value in the test on S. pneumoniae ATCC49619 is 0.03 µg/mL (≈ 0.037 µM).
For `CCC1OC(=O)C(C)C(=O)C(C)C(OC2OC(C)CC(N(C)C)C2O)C(C)(OC(=O)OCC#Cc2ccc(-c3ncccn3)cc2)CC(C)C(=O)C(C)C2NC(=O)OC12C` (centres unmarked) [Compound 80], in that order: 0.25 µg/mL (≈ 0.299 µM), 16 µg/mL (≈ 19.2 µM), 2 µg/mL (≈ 2.4 µM), 0.12 µg/mL (≈ 0.144 µM) and 0.03 µg/mL (≈ 0.0359 µM).
`CCC1OC(=O)C(C)C(=O)C(C)C(OC2OC(C)CC(N(C)C)C2O)C(C)(OC(=O)OCC#Cc2ccc(-c3cnccn3)cc2)CC(C)C(=O)C(C)C2NC(=O)OC12C` (centres unmarked) [Compound 86]: the “MIC (B: S. aureus ATCC29213)” value against S. aureus ATCC29213 stood at 0.12 µg/mL (≈ 0.144 µM). Besides, the “MIC (A: E. coli OC2605)” value against E. coli OC2605 was found to be 8 µg/mL (≈ 9.58 µM). For the same compound, in the test on H. influenzae ATCC49247, the “MIC (E: H. influenzae ATCC49247)” value turned out to be 2 µg/mL (≈ 2.4 µM). Besides, in the test on E. faecalis ATCC29212, the “MIC (C: E. faecalis ATCC29212)” value amounted to 0.06 µg/mL (≈ 0.0719 µM). Moreover, the “MIC (D: S. pneumoniae ATCC49619)” value against S. pneumoniae ATCC49619 was determined as 0.03 µg/mL (≈ 0.0359 µM).
Regarding `CCC1OC(=O)C(C)C(=O)C(C)C(OC2OC(C)CC(N(C)C)C2O)C(C)(OC(=O)OCC#Cc2ccc(-c3cccnn3)cc2)CC(C)C(=O)C(C)C2NC(=O)OC12C` (centres unmarked) [Compound 87], the “MIC (B: S. aureus ATCC29213)” value in the test with S. aureus ATCC29213 was 0.12 µg/mL (≈ 0.144 µM). Besides, the “MIC (A: E. coli OC2605)” value against E. coli OC2605 amounted to 8 µg/mL (≈ 9.58 µM). Also, the “MIC (E: H. influenzae ATCC49247)” value against H. influenzae ATCC49247 was found to be 1 µg/mL (≈ 1.2 µM). Besides, the “MIC (C: E. faecalis ATCC29212)” value in the test with E. faecalis ATCC29212 stood at 0.06 µg/mL (≈ 0.0719 µM). The “MIC (D: S. pneumoniae ATCC49619)” value against S. pneumoniae ATCC49619 was 0.03 µg/mL (≈ 0.0359 µM).
Consider `CCC1OC(=O)C(C)C(=O)C(C)C(OC2OC(C)CC(N(C)C)C2O)C(C)(OC(=O)NOCc2ccccc2)CC(C)C(=O)C(C)C2NC(=O)OC12C` (centres unmarked) [Compound 570], for which the “MIC (B: S. aureus ATCC29213)” value with S. aureus ATCC29213 worked out at 1 µg/mL (≈ 1.34 µM). In the test with E. coli OC2605, the “MIC (A: E. coli OC2605)” value is over 16 µg/mL. Further, the “MIC (E: H. influenzae ATCC49247)” value in the test with H. influenzae ATCC49247 was determined as 4 µg/mL (≈ 5.35 µM). In addition, the “MIC (C: E. faecalis ATCC29212)” value in the test with E. faecalis ATCC29212 is 0.25 µg/mL (≈ 0.334 µM). Moreover, the “MIC (D: S. pneumoniae ATCC49619)” value in the test with S. pneumoniae ATCC49619 worked out at 0.03 µg/mL (≈ 0.0401 µM).
As for `CCC1OC(=O)C(C)C(=O)C(C)C(OC2OC(C)CC(N(C)C)C2O)C(C)(OC(=O)NOCCc2ccc(-c3ncccn3)cc2)CC(C)C(=O)C(C)C2NC(=O)OC12C` (centres unmarked) [Compound 571], the “MIC (B: S. aureus ATCC29213)” value against S. aureus ATCC29213 was 0.5 µg/mL (≈ 0.595 µM). In addition, the “MIC (A: E. coli OC2605)” value against E. coli OC2605 was over 16 µg/mL. For the same compound, the “MIC (E: H. influenzae ATCC49247)” value against H. influenzae ATCC49247 stood at 4 µg/mL (≈ 4.76 µM). For the same compound, the “MIC (C: E. faecalis ATCC29212)” value against E. faecalis ATCC29212 was 0.12 µg/mL (≈ 0.143 µM). The “MIC (D: S. pneumoniae ATCC49619)” value against S. pneumoniae ATCC49619 was found to be 0.03 µg/mL (≈ 0.0357 µM).

The values are drawn from patent publication US6825170B2, “6-O-acyl ketolide antibacterials” (Ortho-McNeil Pharmaceutical, Inc., priority 2001, dated 2004).
